In article PMC6491784, “Para-Halogenation Affects Monoamine Transporter Inhibition Properties and Hepatocellular Toxicity of Amphetamines and Methcathinones” (Frontiers in Pharmacology, 2019):

Assays:
HepG2 cells [1] = assay: Cellular oxygen consumption rate (Seahorse XF24); format: cell-based, human; settings: HepG2, 24 h exposure; for Concentration decreasing maximal respiratory capacity: OCR after FCCP; for Concentration disrupting cellular respiration: investigated range ≤2 mM
Experimental: The cellular oxygen consumption rate (OCR) was measured with a Seahorse XF24 Analyzer (Seahorse Biosciences, North Billerica, MA, USA). Briefly, HepG2 cells were seeded in a poly-D-lysine coated Seahorse XF24 cell culture microplate at a density of 100,000 cells per well. The following day, the cells were treated with the compounds of interest dissolved in 100 μl culture medium. After 24 h incubation, the medium was removed, and the cells were washed twice with pre-warmed and unbuffered DMEM (4 mM L-glutamate, 1 mM pyruvate, 1 g/L glucose, 63.3 mM sodium chloride, pH 7.4). Thereafter, 750 μl of unbuffered DMEM was added to each well, and the plate was incubated in a CO2 free incubator for 40 min at 37°C. The ports of the XF24 assay cartridge were then loaded with oligomycin, trifluoromethoxy carbonylcyanide phenylhydrazone (FCCP), or rotenone at a final assay concentration of 1 μM, and the cartridge was loaded into the Seahorse XF24 Analyzer. First, oligomycin was injected to inhibit mitochondrial phosphorylation, allowing a quantification of proton leak. Second, oxidative phosphorylation was uncoupled from ATP synthesis by FCCP to determine the maximal respiratory capacity of the cells. Third, rotenone was injected to inhibit complex I of the electron transport chain in order to assess for extramitochondrial respiration, which was then subtracted from basal, leak, and maximal respiration. The protein content was determined using sulforhodamine B staining. The cells were fixed with 100 μl trichloroacetic acid (50% [w/v]), added to each well of the assay plate. After 1 h at 4°C, the cells were washed with deionized water and stained with sulforhodamine B (0.4% [w/v], in 1% [v/v] acetic acid). After 20 min, the cells were rapidly washed with 1% (v/v) acetic acid, and the incorporated dye was solubilized with 100 μl of 10 mM TRIS base. The absorbance was then measured at 490 nm.
(§1) All statistical analyses were performed using GraphPad Prism 7.0c (GraphPad Software, La Jolla, CA, USA). For toxicology assays, differences between control and test drugs were calculated with ANOVA followed by Dunett’s test. p below 0.05 was considered statistically significant. Monoamine uptake data were fit by nonlinear regression to variable slope sigmoidal dose-response curves to assess IC50 values.

human SERT = molecular target: T1, human SERT (Homo sapiens, UniProt P31645); assay: Serotonin uptake inhibition in hSERT-transfected HEK 293 cells; format: cell-based
T1 construct: expressed in transfected cells; host or cells: HEK 293 (stably transfected)

human DAT = molecular target: T2, human DAT (Homo sapiens, UniProt Q01959); assay: Dopamine uptake inhibition in hDAT-transfected HEK 293 cells; format: cell-based
T2 construct: expressed in transfected cells; host or cells: HEK 293 (stably transfected)

human NET = molecular target: T3, human NET (Homo sapiens, UniProt P23975); assay: Norepinephrine uptake inhibition in hNET-transfected HEK 293 cells; format: cell-based
T3 construct: expressed in transfected cells; host or cells: HEK 293 (stably transfected)

HepG2 cells [2] = assay: Mitochondrial superoxide production (MitoSOX); format: cell-based, human; settings: HepG2, 24 h exposure
Experimental: Briefly, HepG2 cells were seeded in a 96-well plate at a density of 25,000 cells per well. The following day, the cells were treated with 100 μl of the test substances dissolved in medium (0.25, 0.5, 1.0, and 2.0 mM of each drug, and additionally, 0.1 mM of 4-fluoroamphetamine and 4-chloroamphetamine). Amiodarone (50 μM) was included as positive control. After 24 h incubation, 100 μl of MitoSOX reagent (2.5 μM) was added to each well for 10 min at 37°C protected from light. After that, fluorescence was measured at 510/580 nm with a M200 Pro Infinity plate reader (Tecan, Männedorf, Switzerland). The protein content was assessed with the Pierce BCA Protein Assay Kit (Thermo Fisher Scientific, Basel, Switzerland).
as §1

HepG2 cells [3] = assay: Cell membrane integrity (ToxiLight BioAssay); format: cell-based, human; settings: HepG2, 24 h exposure; tested up to 2 mM
Experimental: Cell membrane integrity loss was assessed with the ToxiLight BioAssay Kit (Lonza, Basel, Switzerland) as a marker of cytotoxicity. Briefly, HepG2 cells were seeded in a 96-well plate at a density of 25,000 cells per well. The following day, the cells were treated with 100 μl of the compounds of interest dissolved in medium (0.25, 0.5, 1.0, and 2.0 mM of each drug, and additionally, 0.1 mM of 4-fluoroamphetamine and 4-chloroamphetamine). Triton X-100 (0.5%) was chosen as positive control to induce cell lysis. After 24 h, 50 μl of the ToxiLight assay buffer was added to 20 μl of the supernatant of the drug treatments. After 5 min incubation under shaking, luminescence was measured with a M200 Pro Infinity plate reader (Tecan, Männedorf, Switzerland) and compared to medium control. The amount of viable cells (no cell membrane integrity loss) was calculated in relation to untreated cells and cells lysed with Triton X-100, which were determined to represent 100% and 0% viable cells, respectively.
as §1

HepG2 cells [4] = assay: Mechanisms of cell death (annexin V / propidium iodide flow cytometry); format: cell-based, human; settings: HepG2, 24 h exposure; for Main mechanism of cell death: 4-chloroamphetamine at 0.5 mM; for Concentration causing significant reduction in cell viability (annexin V staining): highest concentration 2 mM
Text: Annexin V, a Ca^2+-dependent phospholipid-binding protein that has a high affinity for phosphatidylserine, was used to determine the percentage of apoptotic cells. Phosphatidylserine is located in the inner cytoplasmic surface of intact cell membranes; in apoptotic cells, phosphatidylserine is translocated to the outer leaflet of the plasma membrane where annexin V binds to it. To assess the percentage of dead cells composed of necrotic and late apoptotic cells, propidium iodide, a red fluorescent dye not permeable to live and apoptotic cells but able to stain permeable necrotic cells by binding to the nucleic acid in the cell, was used. Briefly, 100,000 HepG2 cells per well were seeded in a 48-well plate and cultured overnight. The following day, the cells were treated with 250 μl of the compounds of interest dissolved in medium at concentrations selected based on ATP depletion and cell membrane disruption. Doxorubicin (0.5 μM) was included as positive control. After incubation for 24 h, the cells were harvested with 0.05% trypsin and washed with phosphate buffered saline (pH = 7.4). […] After 15 min incubation in the dark, the cells were analyzed with a CytoFLEX flow cytometer (Beckman Coulter, IN, USA) gating for 10,000 cells.
as §1

HepG2 cells [5] = assay: ATP content (CellTiter-Glo); format: cell-based, human; settings: HepG2, 24 h exposure
Experimental: The ATP content was assessed with the CellTiter-Glo Luminescent Cell Viability Assay (Promega, Dübendorf, Switzerland). Briefly, HepG2 cells were seeded in a 96-well plate at a density of 25,000 cells per well. The following day, the cells were treated with 100 μl of the test substances dissolved in medium (0.25, 0.5, 1.0, and 2.0 mM of each drug, and additionally, 0.1 mM of 4-fluoroamphetamine and 4-chloroamphetamine). Triton X-100 (0.5%) was chosen as positive control to induce cell lysis. After 24 h incubation, 50 μl of the supernatant was discarded, and 50 μl of CellTiter-Glo reagent was added to each well. The plate was then shaken for 15 min at room temperature to induce cell lysis. Thereafter, luminescence was measured with a M200 Pro Infinity plate reader (Tecan, Männedorf, Switzerland) and compared to medium control.
as §1

T3 sequence (P23975 whole entry): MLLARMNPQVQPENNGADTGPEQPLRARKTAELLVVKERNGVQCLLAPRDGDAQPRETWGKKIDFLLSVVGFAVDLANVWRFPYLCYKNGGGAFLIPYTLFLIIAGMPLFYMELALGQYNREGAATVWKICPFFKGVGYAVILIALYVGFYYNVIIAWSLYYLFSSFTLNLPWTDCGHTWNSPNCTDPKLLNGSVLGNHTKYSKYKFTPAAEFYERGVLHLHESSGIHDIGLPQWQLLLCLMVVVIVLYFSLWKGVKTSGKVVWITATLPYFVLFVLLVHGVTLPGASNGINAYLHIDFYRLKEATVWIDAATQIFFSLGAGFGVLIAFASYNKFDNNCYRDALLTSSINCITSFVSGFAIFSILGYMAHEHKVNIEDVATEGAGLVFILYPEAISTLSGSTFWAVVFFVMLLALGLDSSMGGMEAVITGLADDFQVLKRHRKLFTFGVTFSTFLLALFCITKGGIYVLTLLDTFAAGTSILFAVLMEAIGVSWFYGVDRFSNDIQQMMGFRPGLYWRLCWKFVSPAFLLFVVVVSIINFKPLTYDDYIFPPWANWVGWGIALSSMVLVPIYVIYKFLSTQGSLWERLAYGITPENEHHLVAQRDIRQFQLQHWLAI
T1 sequence (P31645 whole entry): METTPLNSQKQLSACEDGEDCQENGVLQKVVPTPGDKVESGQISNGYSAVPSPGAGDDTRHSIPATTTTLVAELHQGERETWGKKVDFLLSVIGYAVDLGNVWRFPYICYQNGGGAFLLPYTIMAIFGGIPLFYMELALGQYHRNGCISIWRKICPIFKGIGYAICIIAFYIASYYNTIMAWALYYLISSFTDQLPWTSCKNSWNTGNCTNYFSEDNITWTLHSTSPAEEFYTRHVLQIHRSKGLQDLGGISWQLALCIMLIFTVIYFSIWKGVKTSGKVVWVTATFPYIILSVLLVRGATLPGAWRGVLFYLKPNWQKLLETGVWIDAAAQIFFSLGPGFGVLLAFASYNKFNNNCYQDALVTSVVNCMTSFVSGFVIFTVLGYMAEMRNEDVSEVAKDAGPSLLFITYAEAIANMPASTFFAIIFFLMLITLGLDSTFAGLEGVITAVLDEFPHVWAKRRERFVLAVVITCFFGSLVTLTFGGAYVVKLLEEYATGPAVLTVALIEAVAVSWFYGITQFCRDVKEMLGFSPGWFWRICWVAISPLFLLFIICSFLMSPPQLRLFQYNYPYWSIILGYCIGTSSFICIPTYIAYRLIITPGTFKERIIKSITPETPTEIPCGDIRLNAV
T2 sequence (Q01959 whole entry): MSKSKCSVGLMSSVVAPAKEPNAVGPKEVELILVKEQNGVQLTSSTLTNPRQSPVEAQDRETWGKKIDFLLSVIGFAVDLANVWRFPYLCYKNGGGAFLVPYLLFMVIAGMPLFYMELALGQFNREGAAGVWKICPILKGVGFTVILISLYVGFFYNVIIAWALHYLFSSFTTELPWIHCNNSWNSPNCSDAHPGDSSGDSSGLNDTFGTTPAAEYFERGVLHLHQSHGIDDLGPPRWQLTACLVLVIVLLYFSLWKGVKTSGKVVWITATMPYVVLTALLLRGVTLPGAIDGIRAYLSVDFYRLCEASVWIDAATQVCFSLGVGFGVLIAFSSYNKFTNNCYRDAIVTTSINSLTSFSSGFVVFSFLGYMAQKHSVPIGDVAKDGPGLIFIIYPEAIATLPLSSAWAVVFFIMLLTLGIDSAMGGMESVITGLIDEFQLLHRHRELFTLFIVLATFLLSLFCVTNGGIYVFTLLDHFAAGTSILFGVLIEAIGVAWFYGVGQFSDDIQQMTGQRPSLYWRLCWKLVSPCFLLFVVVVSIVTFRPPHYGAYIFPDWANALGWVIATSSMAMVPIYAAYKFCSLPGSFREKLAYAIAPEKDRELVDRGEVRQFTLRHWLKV

| SMILES | Concentration decreasing maximal respiratory capacity (HepG2 cells [1]) | IC50 (human SERT) | DAT/SERT ratio (human DAT) | IC50 (human DAT) | IC50 (human NET) | Concentration at which significant increase in mitochondrial superoxide was observed (HepG2 cells [2]) | Concentration causing significant cell membrane integrity loss (HepG2 cells [3]) | Main mechanism of cell death (HepG2 cells [4]) | Concentration causing significant reduction in cell viability (annexin V staining) (HepG2 cells [4]) | Concentration at which significant depletion of ATP was observed (HepG2 cells [5]) | ATP content at 0.5 mM (HepG2 cells [5]; 0.5 mM) | Amount of necrotic and apoptotic cells versus control at 2 mM (HepG2 cells [4]) | Concentration showing signs of uncoupling of cellular respiration from ATP synthesis (HepG2 cells [1]; OCR) | Concentration disrupting cellular respiration (HepG2 cells [1]) |
| --- | --- | --- | --- | --- | --- | --- | --- | --- | --- | --- | --- | --- | --- | --- |
| CC(N)Cc1ccc(Cl)cc1 (centres unmarked) [4-Chloroamphetamine] | 100 µM | 490 nM | 0.14 (0.07–0.25) | 3600 nM | 320 nM | 500 µM | 500 µM | necrosis | 500 µM | 100 µM | almost complete ATP depletion | – | – | – |
| CC(N)Cc1ccccc1 (centres unmarked) [Amphetamine] | – | – | – | – | – | 2000 µM | 2000 µM | – | – | 1000 µM | – | did not significantly differ from control incubations | – | – |
| CNC(C)C(=O)c1ccc(Cl)cc1 (centres unmarked) [4-Chloromethcathinone, 4-chloromethcathinone] | 1000 µM | 2300 nM | 0.45 (0.25–0.83) | 5100 nM | 430 nM | 1000 µM | 2000 µM | Apoptosis | 1000 µM | 1000 µM | – | – | 1000 µM | – |
| CNC(C)C(=O)c1ccccc1 (centres unmarked) [Methcathinone, methcathinone] | – | 54000 nM | 34 (20–57) | 1600 nM | 120 nM | 2000 µM | > 2000 µM | – | > 2000 µM | 2000 µM | – | did not significantly differ from control incubations | – | > 2000 µM |
| CC(N)Cc1ccc(F)cc1 (centres unmarked) [4-Fluoroamphetamine, 4-fluoroamphetamine] | 1000 µM | 14000 nM | 3.6 (1.9–6.5) | 3900 nM | 150 nM | 1000 µM | 2000 µM | Apoptosis | 1000 µM | 500 µM | – | – | – | – |
| CNC(C)C(=O)c1ccc(F)cc1 (centres unmarked) [4-Fluoromethcathinone, 4-fluoromethcathinone] | – | 37000 nM | 5.6 (3.3–9.4) | 6600 nM | 350 nM | 2000 µM | > 2000 µM | – | > 2000 µM | 1000 µM | – | did not significantly differ from control incubations | – | > 2000 µM |
